Test results taken from paper PMC6222614, “Disubstituted 4-Chloro-3-nitrophenylthiourea Derivatives: Antimicrobial and Cytotoxic Studies” (Molecules : A Journal of Synthetic Chemistry and Natural …, 2018).
Values after ≈ are worked out from the molar mass of the structure shown.

Legend:
[1] = Cytotoxicity against mock-infected MT-4 cells (MTT); format: cell-based, human; conditions: human, concentration reducing viability of mock-infected MT-4 cells by 50%
Method: (§1) Cell line supporting the multiplication of Human Immunodeficiency Virus type-1 (HIV-1) was the CD4+ human T-cells, derived from human hematological tumors, containing an integrated HTLV-1 genome (MT-4). Cells were purchased from American Type Culture Collection (ATCC). Human Immunodeficiency Virus type-1 (HIV-1) IIIB laboratory strain was obtained from the supernatant of the persistently infected H9/IIIB cells (NIH 1983).
Exponentially growing MT-4 cells were seeded at an initial density of 1 × 10^5 cells/mL in 96-well plates in RPMI-1640 medium, supplemented with 10% fetal bovine serum (FBS), 100 units/mL penicillin G and 100 μg/mL streptomycin. Cell cultures were then incubated at 37 °C in a humidified, 5% CO2 atmosphere, in the absence or presence of serial dilutions of tested compounds. Cell viability was determined after 96 h at 37 °C by the 3-(4,5-dimethylthiazol-2-yl)-2,5-diphenyl-tetrazolium bromide (MTT) method.

HIV-1 IIIB = assay: Anti-HIV-1 activity: protection of MT-4 cells from virus-induced cytopathogenicity (MTT); format: cell-based, Human Immunodeficiency Virus type-1; conditions: Human immunodeficiency virus 1, IIIB, MT4, 96 h; 50% protection of MT-4 cells from HIV-1 induced cytopathogenicity, MTT, 4-day incubation; read-out: HIV-1IIIB EC50
Description: as §1
The activity of compounds against HIV-1 was based on inhibition of virus-induced cytopathogenicity in MT-4 cell acutely infected with a multiplicity of infection (m.o.i.) of 0.01. Briefly, 50 μL of RPMI containing 1 × 10^4 MT-4 cells were added to each well of flat-bottom microtiter trays, containing 50 μL of RPMI without or with serial dilutions of test compounds. Then, 20 μL of a HIV-1 suspension containing 100 CCID50 were added. After a 4-day incubation at 37 °C, cell viability was determined by the MTT method.

B. cereus ATCC 11778 = assay: MIC, twofold serial microdilution; format: cell-based; conditions: Bacillus cereus, ATCC11778; standard strain, 18 h, 35 °C
Method: (§2) The antimicrobial activity of the compounds was tested on Gram-positive bacteria (Staphylococcus aureus NCTC 4163, Staphylococcus aureus ATCC 25923, Staphylococcus aureus ATCC 6538, Staphylococcus aureus ATCC 29213, Staphylococcus epidermidis ATCC 12228, Staphylococcus epidermidis ATCC 35984, Enterococcus faecalis ATCC 29212, Bacillus subtilis ATCC 6633, Bacillus cereus ATCC 11778, Micrococcus luteus ATCC 9341, Micrococcus luteus ATCC 10240); Gram-negative rods (Escherichia coli ATCC 10538, Escherichia coli ATCC 25922, Escherichia coli NCTC 8196, Proteus vulgaris NCTC 4635, Pseudomonas aeruginosa ATCC 15442, Pseudomonas aeruginosa NCTC 6749, Pseudomonas aeruginosa ATCC 27863, Bordetella bronchiseptica ATCC 4617) and yeasts (Candida albicans ATCC 10231, Candida albicans ATCC 90028, Candida parapsilosis ATCC 22019). Other microorganisms used were obtained from the collection of the Department of Pharmaceutical Microbiology, Medical University of Warsaw, Poland.
(§3) Antibacterial activity was examined by the disc-diffusion method under standard conditions using Mueller-Hinton II agar medium (Becton Dickinson) according to CLSI (previously NCCLS) guidelines. Antifungal activities were assessed using Mueller-Hinton agar + 2% glucose and 0.5 µg/mL Methylene Blue Dye Medium. Sterile filter paper discs (9 mm diameter, Whatman No 3 chromatography paper) were dripped with tested compound solutions (in DMSO) to load 400 μg of a given compound per disc. Dry discs were placed on the surface of appropriate agar medium. The results (diameter of the growth inhibition zone) were read after 18 h of incubation at 35 °C. Minimal Inhibitory Concentration (MIC) was tested by the twofold serial microdilution method (in 96-well microtiter plates) using Mueller-Hinton Broth medium (Beckton Dickinson) for bacteria or RPMI-1640 medium for Candida species according to CLSI guidelines. The stock solution of tested agent was prepared in DMSO and diluted in sterile water. Concentrations of tested agents ranged from 0.125 to 512 µg/mL. The final inoculum of all studied microorganisms was 10^5 CFU/ mL^−1 (colony forming units per mL). Minimal inhibitory concentrations (the lowest concentration of a tested agent that prevents visible growth of a microorganism) were read after 18 h (bacteria) or 24 h (yeasts) of incubation at 35 °C.

B. subtilis ATCC 6633 = assay: MIC, twofold serial microdilution; format: cell-based; conditions: Bacillus subtilis, ATCC6633; standard strain, 18 h, 35 °C
Method: as §2, §3

M. luteus ATCC 10240 = assay: MIC, twofold serial microdilution; format: cell-based; conditions: Micrococcus luteus, ATCC10240; standard strain, 18 h, 35 °C
Method: as §2, §3

M. luteus ATCC 9341 = assay: MIC, twofold serial microdilution; format: cell-based; conditions: Micrococcus luteus, ATCC9341; standard strain, 18 h, 35 °C
Method: as §2, §3

S. aureus ATCC 25923 = assay: MIC, twofold serial microdilution; format: cell-based; conditions: Staphylococcus aureus, ATCC25923; standard strain, 18 h, 35 °C
Method: as §2, §3

S. aureus ATCC 29213 = assay: MIC, twofold serial microdilution; format: cell-based; conditions: Staphylococcus aureus, ATCC29213; standard strain, 18 h, 35 °C
Method: as §2, §3

S. aureus ATCC 6538 = assay: MIC, twofold serial microdilution; format: cell-based; conditions: Staphylococcus aureus, ATCC6538; standard strain, 18 h, 35 °C
Method: as §2, §3

S. aureus NCTC 4163 = assay: MIC, twofold serial microdilution; format: cell-based; conditions: Staphylococcus aureus, NCTC4163; standard strain, 18 h, 35 °C
Method: as §2, §3

[2] = tested on: S. epidermidis ATCC 12228; assay: MIC, twofold serial microdilution; format: cell-based; conditions: Staphylococcus epidermidis, ATCC12228; standard strain, 18 h, 35 °C
Method: as §2, §3

[3] = tested on: S. epidermidis ATCC 35984; assay: MIC, twofold serial microdilution; format: cell-based; conditions: Staphylococcus epidermidis, ATCC35984; standard strain, 18 h, 35 °C
Method: as §2, §3

[4] = tested on: S. epidermidis MRSE 403/11; assay: MIC, hospital methicillin-resistant strain; format: cell-based; conditions: Staphylococcus epidermidis
Method: as §2, §3

[5] = tested on: S. epidermidis MRSE 404/11; assay: MIC, hospital methicillin-resistant strain; format: cell-based; conditions: Staphylococcus epidermidis
Method: as §2, §3

[6] = tested on: S. epidermidis MRSE 405/11; assay: MIC, hospital methicillin-resistant strain; format: cell-based; conditions: Staphylococcus epidermidis
Method: as §2, §3

[7] = tested on: S. epidermidis MRSE 406/11; assay: MIC, hospital methicillin-resistant strain; format: cell-based; conditions: Staphylococcus epidermidis
Method: as §2, §3

[8] = tested on: S. epidermidis MRSE 407/11; assay: MIC, hospital methicillin-resistant strain; format: cell-based; conditions: Staphylococcus epidermidis
Method: as §2, §3

[9] = tested on: S. epidermidis MRSE 409/11; assay: MIC, hospital methicillin-resistant strain; format: cell-based; conditions: Staphylococcus epidermidis
Method: as §2, §3

[10] = tested on: S. epidermidis MRSE 411/11; assay: MIC, hospital methicillin-resistant strain; format: cell-based; conditions: Staphylococcus epidermidis
Method: as §2, §3

[11] = tested on: S. epidermidis MRSE 412/11; assay: MIC, hospital methicillin-resistant strain; format: cell-based; conditions: Staphylococcus epidermidis
Method: as §2, §3

[12] = tested on: S. epidermidis MRSE 413/11; assay: MIC, hospital methicillin-resistant strain; format: cell-based; conditions: Staphylococcus epidermidis
Method: as §2, §3

[13] = tested on: S. epidermidis MRSE 422/11; assay: MIC, hospital methicillin-resistant strain; format: cell-based; conditions: Staphylococcus epidermidis
Method: as §2, §3

standard strains = assay: Antimicrobial activity against set of bacterial and fungal strains; format: cell-based; conditions: for MIC: range over standard strains
Method: as §2
as §3, with “The stock solution of tested agent was prepared in DMSO and diluted in sterile water. Concentrations of tested agents ranged from 0.125 to 512 µg/mL. The final inoculum of all studied microorganisms was 10^5 CFU/ mL^−1 (colony forming units per mL).” left out

E. faecalis ATCC 29212 = assay: MIC, twofold serial microdilution; format: cell-based; conditions: Enterococcus faecalis, ATCC29212; standard strain, 18 h, 35 °C
Method: as §2, §3

staphylococci = assay: MIC against staphylococci; format: cell-based; conditions: moderate activity
Method: as §2, §3

Row | SMILES | CC50 at 96 h [1] [µM] | EC50 (HIV-1 IIIB) [µM] | MIC (B. cereus ATCC 11778) [µg/mL] | MIC (B. subtilis ATCC 6633) [µg/mL] | MIC (M. luteus ATCC 10240) [µg/mL] | MIC (M. luteus ATCC 9341) [µg/mL] | MIC (S. aureus ATCC 25923) [µg/mL] | MIC (S. aureus ATCC 29213) [µg/mL] | MIC (S. aureus ATCC 6538) [µg/mL] | MIC (S. aureus NCTC 4163) [µg/mL] | MIC [2] [µg/mL] | MIC [3] [µg/mL] | MIC [4] [µg/mL] | MIC [5] [µg/mL] | MIC [6] [µg/mL] | MIC [7] [µg/mL] | MIC [8] [µg/mL] | MIC [9] [µg/mL] | MIC [10] [µg/mL] | melting point [°C] | other results
1 | Cc1ccc(NC(=S)Nc2ccc(Cl)c([N+](=O)[O-])c2)cc1 [Compound 20, 1-(4-chloro-3-nitrophenyl)-3-(4-methylphenyl)thiourea] | 14.6 | > 14.6 | 4 (≈ 12.4 µM) | 4 (≈ 12.4 µM) | 4 (≈ 12.4 µM) | 4 (≈ 12.4 µM) | 2 (≈ 6.22 µM) | 2 (≈ 6.22 µM) | 4 (≈ 12.4 µM) | 2 (≈ 6.22 µM) | 4 (≈ 12.4 µM) | 4 (≈ 12.4 µM) | 16 (≈ 49.7 µM) | 16 (≈ 49.7 µM) | 16 (≈ 49.7 µM) | 16 (≈ 49.7 µM) | 16 (≈ 49.7 µM) | 16 (≈ 49.7 µM) | 16 (≈ 49.7 µM) | 156 to 158 | MIC [11]: 32 µg/mL (≈ 99.4 µM); MIC [12]: 16 µg/mL (≈ 49.7 µM); MIC [13]: 32 µg/mL (≈ 99.4 µM); MIC (standard strains): 2 to 4 µg/mL (≈ 6.22 to 12.4 µM)
2 | COc1ccc(NC(=S)Nc2ccc(Cl)c([N+](=O)[O-])c2)cc1 [Compound 21, 1-(4-chloro-3-nitrophenyl)-3-(4-methoxyphenyl)thiourea] | 35 | > 35 |  |  |  |  |  |  |  |  |  |  |  |  |  |  |  |  |  | 149 to 150.5 | activity against tested microorganisms (standard strains): devoid of activity
3 | CCCCc1ccc(NC(=S)Nc2ccc(Cl)c([N+](=O)[O-])c2)c(C)c1 [Compound 22, 1-(4-butyl-2-methylphenyl)-3-(4-chloro-3-nitrophenyl)thiourea] | 18.7 | > 18.7 | 4 (≈ 10.6 µM) | 4 (≈ 10.6 µM) | 2 (≈ 5.29 µM) | 4 (≈ 10.6 µM) | 2 (≈ 5.29 µM) | 2 (≈ 5.29 µM) | 2 (≈ 5.29 µM) | 4 (≈ 10.6 µM) | 4 (≈ 10.6 µM) | 4 (≈ 10.6 µM) | 4 (≈ 10.6 µM) | 8 (≈ 21.2 µM) | 4 (≈ 10.6 µM) | 8 (≈ 21.2 µM) | 4 (≈ 10.6 µM) | 4 (≈ 10.6 µM) | 4 (≈ 10.6 µM) | 67 to 69 | MIC [11]: 8 µg/mL (≈ 21.2 µM); MIC [12]: 8 µg/mL (≈ 21.2 µM); MIC [13]: 8 µg/mL (≈ 21.2 µM); MIC (standard strains): 2 to 4 µg/mL (≈ 5.29 to 10.6 µM)
4 | O=[N+]([O-])c1cc(NC(=S)NCc2ccco2)ccc1Cl [Compound 30, 1-(4-chloro-3-nitrophenyl)-3-(furan-2-ylmethyl)thiourea] | 25.6 | > 25.6 | 16 (≈ 51.3 µM) | 16 (≈ 51.3 µM) | 16 (≈ 51.3 µM) | 16 (≈ 51.3 µM) | 8 (≈ 25.7 µM) | 16 (≈ 51.3 µM) | 16 (≈ 51.3 µM) | 16 (≈ 51.3 µM) | 32 (≈ 103 µM) | 32 (≈ 103 µM) | 32 (≈ 103 µM) | 32 (≈ 103 µM) | 32 (≈ 103 µM) | 64 (≈ 205 µM) | 32 (≈ 103 µM) | 32 (≈ 103 µM) | 32 (≈ 103 µM) | 144 to 146 | MIC (E. faecalis ATCC 29212): 32 µg/mL (≈ 103 µM); MIC [11]: 32 µg/mL (≈ 103 µM); MIC [12]: 32 µg/mL (≈ 103 µM); MIC [13]: 32 µg/mL (≈ 103 µM); MIC range towards staphylococci (staphylococci): 8 to 16 µg/mL
